Measured values: ChEMBL document CHEMBL4270607, “Identification of crizotinib derivatives as potent SHIP2 inhibitors for the treatment of Alzheimer's disease” (Eur J Med Chem, 2018)

How the values were obtained:
[1] = Metabolic stability in mouse liver microsomes assessed as parent compound remaining at 1 uM preincubated for 5 mins followed by NADPH addition measured after 30 mins by LC-MS/MS analysis; assay type: ADME, microsome; conditions: read-out: Stability
[2] = Metabolic stability in rat liver microsomes assessed as parent compound remaining at 1 uM preincubated for 5 mins followed by NADPH addition measured after 30 mins by LC-MS/MS analysis; assay type: ADME, microsome; conditions: read-out: Stability
[3] = target: T1, CYP1A2 (Homo sapiens, UniProt P05177); assay: Inhibition of recombinant human CYP1A2 assessed as remaining enzyme activity at 10 uM preincubated for 5 mins followed by NADPH addition measured after 20 mins by fluorescence assay relative to control; assay type: ADME; conditions: read-out: Activity
T1 sequence (P05177 whole entry): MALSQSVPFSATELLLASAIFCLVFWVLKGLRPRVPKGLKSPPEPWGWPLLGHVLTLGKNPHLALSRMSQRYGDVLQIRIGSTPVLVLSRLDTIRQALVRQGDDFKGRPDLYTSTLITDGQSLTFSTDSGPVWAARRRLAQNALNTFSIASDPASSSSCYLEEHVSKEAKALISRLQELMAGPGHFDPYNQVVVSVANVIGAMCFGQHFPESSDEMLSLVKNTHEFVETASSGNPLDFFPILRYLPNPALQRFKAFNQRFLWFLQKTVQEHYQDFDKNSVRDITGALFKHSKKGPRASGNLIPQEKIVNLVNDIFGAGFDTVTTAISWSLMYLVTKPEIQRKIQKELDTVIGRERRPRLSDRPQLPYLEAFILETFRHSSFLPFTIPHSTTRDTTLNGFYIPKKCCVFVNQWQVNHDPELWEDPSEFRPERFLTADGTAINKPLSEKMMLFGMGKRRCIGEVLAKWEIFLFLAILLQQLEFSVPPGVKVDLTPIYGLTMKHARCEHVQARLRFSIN

[4] = Metabolic stability in dog liver microsomes assessed as parent compound remaining at 1 uM preincubated for 5 mins followed by NADPH addition measured after 30 mins by LC-MS/MS analysis; assay type: ADME, Canis lupus familiaris, microsome; conditions: read-out: Stability
[5] = target: T2, Phosphatidylinositol 3,4,5-trisphosphate 5-phosphatase 2 (Homo sapiens) (UniProt O15357); assay: Inhibition of SHIP2 (unknown origin) assessed as remaining enzyme activity at 30 uM using PtdIns(3,4,5)P3 as substrate preincubated for 20 mins followed by substrate addition measured for 50 mins by malachite green staining based assay relative to control
T2 sequence (whole entry): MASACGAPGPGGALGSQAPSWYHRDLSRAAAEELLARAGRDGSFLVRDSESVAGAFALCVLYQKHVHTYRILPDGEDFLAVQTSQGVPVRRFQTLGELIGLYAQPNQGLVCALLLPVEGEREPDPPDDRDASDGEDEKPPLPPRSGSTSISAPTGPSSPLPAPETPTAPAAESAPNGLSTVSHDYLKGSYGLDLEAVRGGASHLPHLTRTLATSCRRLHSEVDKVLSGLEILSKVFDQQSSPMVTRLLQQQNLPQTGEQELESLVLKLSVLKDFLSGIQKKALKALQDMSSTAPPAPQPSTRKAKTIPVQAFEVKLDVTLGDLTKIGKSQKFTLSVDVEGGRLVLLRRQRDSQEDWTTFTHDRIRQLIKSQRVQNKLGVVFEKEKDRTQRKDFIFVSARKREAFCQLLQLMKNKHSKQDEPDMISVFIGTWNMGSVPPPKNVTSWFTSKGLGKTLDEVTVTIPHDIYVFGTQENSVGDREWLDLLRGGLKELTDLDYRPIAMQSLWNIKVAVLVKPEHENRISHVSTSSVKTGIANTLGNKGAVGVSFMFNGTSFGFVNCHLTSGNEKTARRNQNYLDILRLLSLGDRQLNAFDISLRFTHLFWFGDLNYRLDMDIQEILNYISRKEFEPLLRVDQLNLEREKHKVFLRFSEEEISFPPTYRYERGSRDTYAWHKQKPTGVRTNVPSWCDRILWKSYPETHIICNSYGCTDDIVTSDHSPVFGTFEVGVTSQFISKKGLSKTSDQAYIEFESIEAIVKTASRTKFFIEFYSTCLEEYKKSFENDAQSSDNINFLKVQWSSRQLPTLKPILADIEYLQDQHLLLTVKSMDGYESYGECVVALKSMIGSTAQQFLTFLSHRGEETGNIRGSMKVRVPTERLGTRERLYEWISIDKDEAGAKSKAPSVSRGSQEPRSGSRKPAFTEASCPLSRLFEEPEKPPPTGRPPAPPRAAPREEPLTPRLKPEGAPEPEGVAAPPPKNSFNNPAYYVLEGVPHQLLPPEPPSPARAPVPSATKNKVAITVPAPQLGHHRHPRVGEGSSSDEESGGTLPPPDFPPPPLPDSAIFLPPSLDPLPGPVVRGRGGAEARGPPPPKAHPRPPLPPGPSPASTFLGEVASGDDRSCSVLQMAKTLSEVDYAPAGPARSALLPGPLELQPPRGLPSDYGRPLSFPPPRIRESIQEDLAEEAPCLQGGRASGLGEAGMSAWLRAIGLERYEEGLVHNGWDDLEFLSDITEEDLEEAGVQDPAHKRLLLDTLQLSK

[6] = target: CYP2C9 (Homo sapiens, UniProt P11712); assay: Inhibition of recombinant human CYP2C9 assessed as remaining enzyme activity at 10 uM preincubated for 5 mins followed by NADPH addition measured after 20 mins by fluorescence assay relative to control; assay type: ADME; conditions: read-out: Activity
CYP2C9, sequence (P11712 whole entry): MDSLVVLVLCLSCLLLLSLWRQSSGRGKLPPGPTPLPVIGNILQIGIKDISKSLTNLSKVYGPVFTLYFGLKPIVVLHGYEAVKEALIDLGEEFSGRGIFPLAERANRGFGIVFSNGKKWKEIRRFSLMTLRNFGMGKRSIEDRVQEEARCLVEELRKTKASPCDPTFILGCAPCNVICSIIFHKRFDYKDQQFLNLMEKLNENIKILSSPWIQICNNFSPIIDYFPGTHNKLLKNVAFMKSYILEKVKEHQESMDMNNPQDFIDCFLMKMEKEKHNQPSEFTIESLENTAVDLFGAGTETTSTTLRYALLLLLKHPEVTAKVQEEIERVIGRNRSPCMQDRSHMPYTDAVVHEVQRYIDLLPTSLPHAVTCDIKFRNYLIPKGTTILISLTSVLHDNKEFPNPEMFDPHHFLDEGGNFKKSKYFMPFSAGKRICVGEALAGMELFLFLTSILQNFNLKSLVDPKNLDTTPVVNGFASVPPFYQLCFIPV

[7] = target: CYP3A4 (Homo sapiens, UniProt P08684); assay: Inhibition of recombinant human CYP3A4 assessed as remaining enzyme activity at 10 uM preincubated for 5 mins followed by NADPH addition measured after 20 mins by fluorescence assay relative to control; assay type: ADME; conditions: read-out: Activity
CYP3A4, sequence (P08684 whole entry): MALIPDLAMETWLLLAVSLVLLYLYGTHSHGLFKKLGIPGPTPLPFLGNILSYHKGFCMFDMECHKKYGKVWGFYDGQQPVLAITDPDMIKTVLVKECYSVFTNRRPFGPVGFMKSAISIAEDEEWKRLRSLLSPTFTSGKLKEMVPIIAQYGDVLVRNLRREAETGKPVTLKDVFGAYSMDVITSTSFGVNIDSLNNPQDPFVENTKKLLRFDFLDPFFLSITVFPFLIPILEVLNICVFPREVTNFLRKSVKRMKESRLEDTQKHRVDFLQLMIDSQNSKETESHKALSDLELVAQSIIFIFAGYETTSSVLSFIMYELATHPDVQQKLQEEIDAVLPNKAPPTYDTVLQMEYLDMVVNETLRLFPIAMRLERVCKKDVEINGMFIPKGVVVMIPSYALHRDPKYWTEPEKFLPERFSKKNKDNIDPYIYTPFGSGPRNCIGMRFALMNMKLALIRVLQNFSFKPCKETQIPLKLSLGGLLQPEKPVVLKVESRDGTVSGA

[8] = target: CYP2C19 (Homo sapiens, UniProt P33261); assay: Inhibition of recombinant human CYP2C19 assessed as remaining enzyme activity at 10 uM preincubated for 5 mins followed by NADPH addition measured after 20 mins by fluorescence assay relative to control; assay type: ADME; conditions: read-out: Activity
CYP2C19, sequence (P33261 whole entry): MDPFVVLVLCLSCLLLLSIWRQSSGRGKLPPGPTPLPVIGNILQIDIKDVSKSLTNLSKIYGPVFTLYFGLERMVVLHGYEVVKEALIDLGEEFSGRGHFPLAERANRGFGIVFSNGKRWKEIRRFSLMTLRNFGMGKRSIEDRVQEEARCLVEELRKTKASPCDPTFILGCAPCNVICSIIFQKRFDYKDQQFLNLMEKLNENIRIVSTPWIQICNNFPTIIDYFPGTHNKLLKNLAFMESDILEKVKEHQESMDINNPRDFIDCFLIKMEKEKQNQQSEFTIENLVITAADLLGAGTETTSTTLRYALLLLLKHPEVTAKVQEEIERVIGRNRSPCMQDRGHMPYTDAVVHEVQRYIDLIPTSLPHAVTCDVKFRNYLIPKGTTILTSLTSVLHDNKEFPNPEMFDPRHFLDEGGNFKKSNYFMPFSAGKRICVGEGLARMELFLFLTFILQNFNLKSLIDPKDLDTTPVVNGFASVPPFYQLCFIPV

[9] = Metabolic stability in human liver microsomes assessed as parent compound remaining at 1 uM preincubated for 5 mins followed by NADPH addition measured after 30 mins by LC-MS/MS analysis; assay type: ADME, microsome; conditions: read-out: Stability
[10] = system: HT-22; assay: Cytotoxicity against mouse HT22 cells assessed as decrease in cell viability at 10 uM after 24 hrs by MTT assay; assay type: cell-based; conditions: ht-22, 24 h
[11] = target: CYP2D6 (Homo sapiens, UniProt P10635); assay: Inhibition of recombinant human CYP2D6 assessed as remaining enzyme activity at 10 uM preincubated for 5 mins followed by NADPH addition measured after 20 mins by fluorescence assay relative to control; assay type: ADME; conditions: read-out: Activity
CYP2D6, sequence (P10635 whole entry): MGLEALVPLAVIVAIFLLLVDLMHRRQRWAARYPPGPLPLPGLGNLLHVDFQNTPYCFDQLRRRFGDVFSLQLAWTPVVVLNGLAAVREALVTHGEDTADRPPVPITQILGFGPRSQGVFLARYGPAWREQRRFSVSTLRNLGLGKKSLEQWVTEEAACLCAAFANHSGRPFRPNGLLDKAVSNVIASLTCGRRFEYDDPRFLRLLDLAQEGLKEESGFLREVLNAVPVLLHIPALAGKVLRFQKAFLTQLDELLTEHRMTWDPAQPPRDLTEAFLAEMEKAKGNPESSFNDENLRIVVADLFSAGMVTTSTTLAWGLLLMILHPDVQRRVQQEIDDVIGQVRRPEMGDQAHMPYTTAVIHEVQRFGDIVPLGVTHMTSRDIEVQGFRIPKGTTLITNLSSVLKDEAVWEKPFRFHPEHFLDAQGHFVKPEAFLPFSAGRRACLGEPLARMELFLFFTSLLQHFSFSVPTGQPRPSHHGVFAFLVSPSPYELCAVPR

What does the source list for `O=C(NCc1c(F)cccc1F)c1sccc1OCc1ccc(Cl)cc1Cl`?
remaining at 0.5 h, 1 µM [1]: 6.4%; remaining at 0.5 h, 1 µM [2]: 28.3%; activity at 20 min, 10 µM [3]: 74.3%; remaining at 0.5 h, 1 µM [4]: 5.7%; Activity [5]: 17.1%; activity at 20 min, 10 µM [6]: 10.9%; activity at 20 min, 10 µM [7]: 20.2%; activity at 20 min, 10 µM [8]: 16.4%; remaining at 0.5 h, 1 µM [9]: 44.1%; Activity [10]: Toxic; activity at 20 min, 10 µM [11]: 82.7%

Which remaining at 0.5 h, 1 µM [1] does the source give for `C[C@@H](Oc1cncc(-c2cnc(N)nc2)c1)c1c(Cl)ccc(F)c1Cl` here?
The remaining at 0.5 h, 1 µM was 46.5%.

And the remaining at 0.5 h, 1 µM [2]?
Its remaining at 0.5 h, 1 µM is 56.4%.

And the activity at 20 min, 10 µM [3]?
Its activity at 20 min, 10 µM is 59%.

What about the remaining at 0.5 h, 1 µM [4] of the same compound?
Its remaining at 0.5 h, 1 µM is 23.1%.

And the Activity [5]?
The Activity was 20.2%.

What about the activity at 20 min, 10 µM [6] of the same compound?
The activity at 20 min, 10 µM was 66.7%.

What about the activity at 20 min, 10 µM [7] of the same compound?
The activity at 20 min, 10 µM was 80.2%.

And the activity at 20 min, 10 µM [8]?
Its activity at 20 min, 10 µM is 36.4%.

And the remaining at 0.5 h, 1 µM [9]?
Its remaining at 0.5 h, 1 µM is 77%.

What about the Activity [10] of the same compound?
Its Activity is “Non-Toxic”.

What about the activity at 20 min, 10 µM [11] of the same compound?
The activity at 20 min, 10 µM was 94.4%.

Which results are given for `N#Cc1ccc(-c2cncc(OCc3ccc(Cl)cc3Cl)c2)s1`?
remaining at 0.5 h, 1 µM [1]: 38.8%; remaining at 0.5 h, 1 µM [2]: 64.3%; activity at 20 min, 10 µM [3]: 77.6%; remaining at 0.5 h, 1 µM [4]: 24.3%; Activity [5]: 19.9%; activity at 20 min, 10 µM [6]: 97.2%; activity at 20 min, 10 µM [7]: 96.7%; activity at 20 min, 10 µM [8]: 89.9%; remaining at 0.5 h, 1 µM [9]: 74.5%; Activity [10]: Non-Toxic; activity at 20 min, 10 µM [11]: 93.1%
